According to PubChem BioAssay (NCI):
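Grown in 96-well plates, cells were treated for 48 hours with each compound at five concentrations. Insufficient inhibition: endpoint recorded as highest concentration tested. At the GI50, growth is halved. TGI is the concentration that stops growth completely.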

Legend:
Test in all cases: growth of human tumour cells (NCI), 48 h
A498 renal = test system: A498 renal
HOP-92 NSCLC = test system: HOP-92 NSCLC
HL-60(TB) leukemia = test system: HL-60(TB) leukemia
HS 578T breast = test system: HS 578T breast
RPMI-8226 leukemia = test system: RPMI-8226 leukemia
NCI-H460 lung = test system: NCI-H460 lung
UACC-62 melanoma = test system: UACC-62 melanoma
PC-3 prostate = test system: PC-3 prostate
HCC-2998 colon = test system: HCC-2998 colon
SK-MEL-2 melanoma = test system: SK-MEL-2 melanoma

Compound `COc1ccc(OC)c(/C=C/c2nc(SCc3ccccc3)n(-c3ccc(Cl)cc3)n2)c1` has a GI50 (A498 renal) of 4.54 µM, a TGI (A498 renal) of 88.4 µM and a GI50 (HOP-92 NSCLC) of over 100 µM. It also gave a TGI (HOP-92 NSCLC) of over 100 µM, a GI50 (HL-60(TB) leukemia) of 3.14 µM and a TGI (HL-60(TB) leukemia) of 9.86 µM. It also gave a GI50 (HS 578T breast) of 5.23 µM, a TGI (HS 578T breast) of over 100 µM and a GI50 (RPMI-8226 leukemia) of 7.39 µM. For the same compound, the TGI (RPMI-8226 leukemia) was over 100 µM, the GI50 (NCI-H460 lung) was 4.17 µM and the TGI (NCI-H460 lung) was over 100 µM. The GI50 (UACC-62 melanoma) was 6.15 µM, the TGI (UACC-62 melanoma) was over 100 µM and the GI50 (PC-3 prostate) was 33.3 µM. It also gave a TGI (PC-3 prostate) of over 100 µM, a GI50 (HCC-2998 colon) of 8.24 µM and a TGI (HCC-2998 colon) of over 100 µM. The GI50 (SK-MEL-2 melanoma) was 6.38 µM and the TGI (SK-MEL-2 melanoma) was over 100 µM.
